Reference: patent US20170050957A1, “4-AMINO-6-(HETEROCYCLIC)PICOLINATES AND 6-AMINO-2-(HETEROCYCLIC)PYRIMIDINE-4-CARBOXYLATES AND THEIR USE AS HERBICIDES” (Dow AgroSciences LLC, priority 2013, published 2017)
Like-named read-outs stand apart in the source and are kept apart here.

Columns and labels:
[1] = system: Key Grass and Sedge Weeds as well as Grass Crops; test: Post-emergent Test II herbicidal activity (Table 16); type: in vivo; settings: post-emergence, 336 h, 14 days after application; for pest or weed control at 35 g/ha: 35 g ai/ha; for pest or weed control at 70 g/ha: 70 g ai/ha; for pest or weed control at 140 g/ha: 140 g ai/ha
Outline: (§1)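 Visual injury rating (0 = none, 100% = complete kill) made 14 d after treatment, relative to untreated plants. Compounds in an acetone/DMSO/aqueous crop-oil/surfactant spray, at top rate and serial 1/2×-1/16× rates, were applied at 187 L/ha overhead to first-second true leaf plants raised 7-21 d in greenhouse.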

[2] = system: Key Broadleaf Weed and Crop Species; test: Post-emergent Test II herbicidal activity (Table 15); type: in vivo; settings: post-emergence, 336 h, 14 d; for pest or weed control at 35 g/ha: 35 g ai/ha; for pest or weed control at 70 g/ha: 70 g ai/ha; for pest or weed control at 140 g/ha: 140 g ai/ha
Outline: as §1

[3] = Cyperus esculentus, yellow nutsedge (Cyperus esculentus), read-out: Visual Growth Reduction (%) 14 Days After Application CYPES
[4] = Echinochloa crus-galli, barnyardgrass (Echinochloa crus-galli), read-out: Visual Growth Reduction (%) 14 Days After Application ECHCG
[5] = Oryza sativa, rice (Oryza sativa), read-out: Visual Growth Reduction (%) 14 Days After Application ORYSA
[6] = Setaria faberi, giant foxtail (Setaria faberi), read-out: Visual Growth Reduction (%) 14 Days After Application SETFA
[7] = Triticum aestivum, wheat, spring (Triticum aestivum), read-out: Visual Growth Reduction (%) 14 Days After Application TRZAS
[8] = Zea mays, maize, corn (Zea mays), read-out: Visual Growth Reduction (%) 14 Days After Application ZEAMX
[9] = Abutilon theophrasti, velvetleaf (Abutilon theophrasti), read-out: Visual Growth Reduction (%) 14 Days After Application, ABUTH
[10] = Amaranthus retroflexus, redroot pigweed (Amaranthus retroflexus), read-out: Visual Growth Reduction (%) 14 Days After Application, AMARE
[11] = Brassica napus, oilseed rape, canola (Brassica napus), read-out: Visual Growth Reduction (%) 14 Days After Application, BRSNN
[12] = Chenopodium album, lambsquarters (Chenopodium album), read-out: Visual Growth Reduction (%) 14 Days After Application, CHEAL
[13] = Euphorbia heterophylla, wild poinsettia (Euphorbia heterophylla), read-out: Visual Growth Reduction (%) 14 Days After Application, EPHHL
[14] = Helianthus annuus, sunflower (Helianthus annuus), read-out: Visual Growth Reduction (%) 14 Days After Application, HELAN

## COC(=O)c1nc(-c2ccc3sccc3c2)nc(N)c1OC [Compound 3.08]
[1]; [3]
  pest or weed control at 35 g/ha: 0 to 29%
  pest or weed control at 70 g/ha: 0 to 29%
  pest or weed control at 140 g/ha: 30 to 44%
[1]; [4]
  pest or weed control at 35 g/ha: 0 to 29%
  pest or weed control at 70 g/ha: 0 to 29%
  pest or weed control at 140 g/ha: 75 to 84%
[1]; [5]
  pest or weed control at 35 g/ha: 0 to 29%
  pest or weed control at 70 g/ha: 0 to 29%
  pest or weed control at 140 g/ha: 0 to 29%
[1]; [6]
  pest or weed control at 35 g/ha: 0 to 29%
  pest or weed control at 70 g/ha: 0 to 29%
  pest or weed control at 140 g/ha: 0 to 29%
[1]; [7]
  pest or weed control at 35 g/ha: 45 to 59%
  pest or weed control at 70 g/ha: 60 to 74%
  pest or weed control at 140 g/ha: 60 to 74%
[1]; [8]
  pest or weed control at 35 g/ha: 30 to 44%
  pest or weed control at 70 g/ha: 60 to 74%
  pest or weed control at 140 g/ha: 75 to 84%
other
  melting point: 125 to 127 °C
[2]; [9]
  pest or weed control at 35 g/ha: 0 to 29%
  pest or weed control at 70 g/ha: 30 to 44%
  pest or weed control at 140 g/ha: 30 to 44%
[2]; [10]
  pest or weed control at 35 g/ha: 0 to 29%
  pest or weed control at 70 g/ha: 30 to 44%
  pest or weed control at 140 g/ha: 60 to 74%
[2]; [11]
  pest or weed control at 35 g/ha: 0 to 29%
  pest or weed control at 70 g/ha: 0 to 29%
  pest or weed control at 140 g/ha: 30 to 44%
[2]; [12]
  pest or weed control at 35 g/ha: 85 to 94%
  pest or weed control at 70 g/ha: 85 to 94%
  pest or weed control at 140 g/ha: 85 to 94%
[2]; [13]
  pest or weed control at 35 g/ha: 60 to 74%
  pest or weed control at 70 g/ha: 75 to 84%
  pest or weed control at 140 g/ha: 85 to 94%
[2]; [14]
  pest or weed control at 35 g/ha: 60 to 74%
  pest or weed control at 70 g/ha: 75 to 84%
  pest or weed control at 140 g/ha: 85 to 94%
